Data reported in the supplement of paper PMC13207355.
Structures can show the parent of a compound that is named as a salt.

How the values were obtained:
Settings in all cases: exposure time: 72 h
E28 [1] = patient-derived glioblastoma stem cells of classical subtype; experiment: surviving fraction (nuclei count normalised to DMSO); higher = more cells surviving (less toxic)
E21 [2] = patient-derived glioblastoma stem cells of mesenchymal subtype; experiment: as above
E57 [3] = patient-derived glioblastoma stem cells of mesenchymal subtype; experiment: as above
E13 [4] = patient-derived glioblastoma stem cells of classical subtype; experiment: as above
E34 [5] = patient-derived glioblastoma stem cells of proneural subtype; experiment: as above
FT3469 [6] = normal neural stem cell line; experiment: as above
E31 [7] = patient-derived glioblastoma stem cells of proneural subtype; experiment: as above
E28 [8] = experiment: phenotypic distance (Euclidean, principal components) from DMSO controls (arbitrary units); higher = stronger morphological change
E21 [9] = experiment: as above
E57 [10] = experiment: as above
E13 [11] = experiment: as above
E34 [12] = experiment: as above
FT3469 [13] = experiment: as above
E31 [14] = experiment: as above
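Wherever phenotypic distance (Euclidean, principal components) from DMSO controls is given: cell Painting imaging in 384-well plates, CellProfiler features reduced to at least 20 principal components, Euclidean distance versus same-plate DMSO vehicle wells (0.1% v/v), median over six images per well.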
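Wherever surviving fraction (nuclei count normalised to DMSO) is given: nuclei counted by high-content imaging of Hoechst-stained cells in laminin-coated 384-well plates, relative to 0.1% DMSO vehicle wells, with staurosporine as cell-death control.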

C[C@@H]1CN([C@H]2CC[C@](C#N)(c3ccc(F)cc3)CC2)CC[C@]1(C(=O)O)c1ccccc1 [Levocabastine hydrochloride]
Settings | phenotypic distance | surviving fraction
E13 [4], 4.1 nM | – | 0.997
E13 [4], 12.3 nM | – | 1.04
E13 [4], 37 nM | – | 1.06
E13 [4], 111.1 nM | – | 0.914
E13 [4], 333.3 nM | – | 1.05
E13 [4], 1000 nM | – | 0.985
E13 [4], 3000 nM | – | 0.918
E13 [11], 4.1 nM | 0.774 | –
E13 [11], 12.3 nM | 0.599 | –
E13 [11], 37 nM | 0.564 | –
E13 [11], 111.1 nM | 0.596 | –
E13 [11], 333.3 nM | 0.491 | –
E13 [11], 1000 nM | 0.354 | –
E13 [11], 3000 nM | 0.712 | –
E21 [2], 4.1 nM | – | 0.99
E21 [2], 12.3 nM | – | 1.15
E21 [2], 37 nM | – | 0.977
E21 [2], 111.1 nM | – | 1.12
E21 [2], 333.3 nM | – | 1.11
E21 [2], 1000 nM | – | 1.12
E21 [2], 3000 nM | – | 0.854
E21 [9], 4.1 nM | 0.745 | –
E21 [9], 12.3 nM | 0.621 | –
E21 [9], 37 nM | 0.743 | –
E21 [9], 111.1 nM | 0.866 | –
E21 [9], 333.3 nM | 0.582 | –
E21 [9], 1000 nM | 0.688 | –
E21 [9], 3000 nM | 3.41 | –
E28 [1], 4.1 nM | – | 1.07
E28 [1], 12.3 nM | – | 1.17
E28 [1], 37 nM | – | 1.13
E28 [1], 111.1 nM | – | 1.1
E28 [1], 333.3 nM | – | 1.1
E28 [1], 1000 nM | – | 1.12
E28 [1], 3000 nM | – | 0.949
E28 [8], 4.1 nM | 0.787 | –
E28 [8], 12.3 nM | 0.763 | –
E28 [8], 37 nM | 0.863 | –
E28 [8], 111.1 nM | 0.374 | –
E28 [8], 333.3 nM | 0.741 | –
E28 [8], 1000 nM | 0.713 | –
E28 [8], 3000 nM | 1.04 | –
E31 [7], 4.1 nM | – | 1.11
E31 [7], 12.3 nM | – | 1.06
E31 [7], 37 nM | – | 1.13
E31 [7], 111.1 nM | – | 1.01
E31 [7], 333.3 nM | – | 1.17
E31 [7], 1000 nM | – | 1.06
E31 [7], 3000 nM | – | 1.06
E31 [14], 4.1 nM | 0.412 | –
E31 [14], 12.3 nM | 0.744 | –
E31 [14], 37 nM | 0.868 | –
E31 [14], 111.1 nM | 0.539 | –
E31 [14], 333.3 nM | 0.794 | –
E31 [14], 1000 nM | 0.681 | –
E31 [14], 3000 nM | 0.779 | –
E34 [5], 4.1 nM | – | 1.01
E34 [5], 12.3 nM | – | 0.8
E34 [5], 37 nM | – | 1.25
E34 [5], 111.1 nM | – | 0.952
E34 [5], 333.3 nM | – | 0.972
E34 [5], 1000 nM | – | 0.909
E34 [5], 3000 nM | – | 1.22
E34 [12], 4.1 nM | 0.554 | –
E34 [12], 12.3 nM | 1.09 | –
E34 [12], 37 nM | 0.93 | –
E34 [12], 111.1 nM | 0.824 | –
E34 [12], 333.3 nM | 0.742 | –
E34 [12], 1000 nM | 0.79 | –
E34 [12], 3000 nM | 0.624 | –
E57 [3], 4.1 nM | – | 1.09
E57 [3], 12.3 nM | – | 1.02
E57 [3], 37 nM | – | 0.987
E57 [3], 111.1 nM | – | 1.11
E57 [3], 333.3 nM | – | 1.08
E57 [3], 1000 nM | – | 0.975
E57 [3], 3000 nM | – | 0.994
E57 [10], 4.1 nM | 1.04 | –
E57 [10], 12.3 nM | 0.495 | –
E57 [10], 37 nM | 0.313 | –
E57 [10], 111.1 nM | 0.928 | –
E57 [10], 333.3 nM | 4.21 | –
E57 [10], 1000 nM | 0.708 | –
E57 [10], 3000 nM | 0.745 | –
FT3469 [6], 4.1 nM | – | 1.08
FT3469 [6], 12.3 nM | – | 1.15
FT3469 [6], 37 nM | – | 1.05
FT3469 [6], 111.1 nM | – | 1.11
FT3469 [6], 333.3 nM | – | 1.04
FT3469 [6], 1000 nM | – | 1.07
FT3469 [6], 3000 nM | – | 0.784
FT3469 [13], 4.1 nM | 0.782 | –
FT3469 [13], 12.3 nM | 0.792 | –
FT3469 [13], 37 nM | 0.998 | –
FT3469 [13], 111.1 nM | 0.719 | –
FT3469 [13], 333.3 nM | 3.75 | –
FT3469 [13], 1000 nM | 0.437 | –
FT3469 [13], 3000 nM | 3.86 | –

CCC[C@@H]1C[C@@H](C(=O)N[C@@H]([C@H]2O[C@H](SC)[C@H](O)[C@@H](O)[C@H]2O)[C@@H](C)O)N(C)C1 [Lincomycin hydrochloride]
Settings | phenotypic distance | surviving fraction
E13 [4], 4.1 nM | – | 0.937
E13 [4], 12.3 nM | – | 0.912
E13 [4], 37 nM | – | 0.891
E13 [4], 111.1 nM | – | 0.967
E13 [4], 333.3 nM | – | 1.07
E13 [4], 1000 nM | – | 1.1
E13 [4], 3000 nM | – | 0.894
E13 [11], 4.1 nM | 0.648 | –
E13 [11], 12.3 nM | 0.534 | –
E13 [11], 37 nM | 0.423 | –
E13 [11], 111.1 nM | 0.641 | –
E13 [11], 333.3 nM | 0.442 | –
E13 [11], 1000 nM | 0.768 | –
E13 [11], 3000 nM | 0.427 | –
E21 [2], 4.1 nM | – | 0.94
E21 [2], 12.3 nM | – | 0.873
E21 [2], 37 nM | – | 0.963
E21 [2], 111.1 nM | – | 0.936
E21 [2], 333.3 nM | – | 0.972
E21 [2], 1000 nM | – | 0.984
E21 [2], 3000 nM | – | 0.94
E21 [9], 4.1 nM | 0.423 | –
E21 [9], 12.3 nM | 0.813 | –
E21 [9], 37 nM | 0.629 | –
E21 [9], 111.1 nM | 0.635 | –
E21 [9], 333.3 nM | 0.696 | –
E21 [9], 1000 nM | 0.667 | –
E21 [9], 3000 nM | 0.478 | –
E28 [1], 4.1 nM | – | 1.05
E28 [1], 12.3 nM | – | 1.04
E28 [1], 37 nM | – | 1.08
E28 [1], 111.1 nM | – | 0.956
E28 [1], 333.3 nM | – | 1.12
E28 [1], 1000 nM | – | 1.12
E28 [1], 3000 nM | – | 1.03
E28 [8], 4.1 nM | 0.634 | –
E28 [8], 12.3 nM | 0.929 | –
E28 [8], 37 nM | 1.11 | –
E28 [8], 111.1 nM | 0.703 | –
E28 [8], 333.3 nM | 0.726 | –
E28 [8], 1000 nM | 0.598 | –
E28 [8], 3000 nM | 0.576 | –
E31 [7], 4.1 nM | – | 1.03
E31 [7], 12.3 nM | – | 0.994
E31 [7], 37 nM | – | 1.03
E31 [7], 111.1 nM | – | 1.15
E31 [7], 333.3 nM | – | 1.1
E31 [7], 1000 nM | – | 1.21
E31 [7], 3000 nM | – | 0.936
E31 [14], 4.1 nM | 0.488 | –
E31 [14], 12.3 nM | 0.574 | –
E31 [14], 37 nM | 0.621 | –
E31 [14], 111.1 nM | 0.44 | –
E31 [14], 333.3 nM | 0.659 | –
E31 [14], 1000 nM | 0.74 | –
E31 [14], 3000 nM | 0.788 | –
E34 [5], 4.1 nM | – | 0.988
E34 [5], 12.3 nM | – | 0.937
E34 [5], 37 nM | – | 0.909
E34 [5], 111.1 nM | – | 1.09
E34 [5], 333.3 nM | – | 1.11
E34 [5], 1000 nM | – | 1.25
E34 [5], 3000 nM | – | 0.902
E34 [12], 4.1 nM | 0.57 | –
E34 [12], 12.3 nM | 0.706 | –
E34 [12], 37 nM | 0.876 | –
E34 [12], 111.1 nM | 1.02 | –
E34 [12], 333.3 nM | 0.802 | –
E34 [12], 1000 nM | 0.879 | –
E34 [12], 3000 nM | 0.674 | –
E57 [3], 4.1 nM | – | 1.09
E57 [3], 12.3 nM | – | 1.08
E57 [3], 37 nM | – | 0.957
E57 [3], 111.1 nM | – | 1.07
E57 [3], 333.3 nM | – | 0.959
E57 [3], 1000 nM | – | 0.997
E57 [3], 3000 nM | – | 0.976
E57 [10], 4.1 nM | 0.854 | –
E57 [10], 12.3 nM | 1.06 | –
E57 [10], 37 nM | 0.755 | –
E57 [10], 111.1 nM | 0.617 | –
E57 [10], 333.3 nM | 0.478 | –
E57 [10], 1000 nM | 0.463 | –
E57 [10], 3000 nM | 0.394 | –
FT3469 [6], 4.1 nM | – | 0.948
FT3469 [6], 12.3 nM | – | 0.951
FT3469 [6], 37 nM | – | 0.828
FT3469 [6], 111.1 nM | – | 1.15
FT3469 [6], 333.3 nM | – | 1.1
FT3469 [6], 1000 nM | – | 1.08
FT3469 [6], 3000 nM | – | 1.08
FT3469 [13], 4.1 nM | 0.783 | –
FT3469 [13], 12.3 nM | 0.977 | –
FT3469 [13], 37 nM | 0.592 | –
FT3469 [13], 111.1 nM | 0.704 | –
FT3469 [13], 333.3 nM | 0.658 | –
FT3469 [13], 1000 nM | 1.03 | –
FT3469 [13], 3000 nM | 0.496 | –
